Measured values from PubChem BioAssay (NCI).
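Compound exposure: 48 hours, 5 concentrations, 96-well plates. The concentration for 50% growth inhibition is given as GI50. At the TGI there is no net growth.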

Experiments:
Experiment in all cases: inhibition of tumour cell growth, NCI panel, 48 h
[1] = tested on: M14 melanoma
[2] = tested on: HCT-15 colon
[3] = tested on: ACHN renal
[4] = tested on: TK-10 renal
[5] = tested on: CCRF-CEM leukemia
[6] = tested on: MDA-MB-435
[7] = tested on: SK-MEL-2 melanoma
[8] = tested on: RPMI-8226 leukemia
[9] = tested on: OVCAR-5 ovarian
[10] = tested on: OVCAR-3 ovarian

Row | SMILES | GI50 [1] [µM] | TGI [1] [µM] | GI50 [2] [µM] | TGI [2] [µM] | GI50 [3] [µM] | TGI [3] [µM] | GI50 [4] [µM] | TGI [4] [µM] | GI50 [5] [µM] | TGI [5] [µM] | GI50 [6] [µM] | TGI [6] [µM] | GI50 [7] [µM] | TGI [7] [µM] | GI50 [8] [µM] | TGI [8] [µM] | GI50 [9] [µM] | TGI [9] [µM] | GI50 [10] [µM] | TGI [10] [µM]
1 | COc1ccc2c(c1)/C(=N/OC(C)=O)c1c-2c(Nc2ccc(/C(C)=N/OC(C)=O)cc2)nc2ccccc12 | 68.9 | > 100 | 57.5 | > 100 | 56.6 | > 100 | > 100 | > 100 | 23.9 | 47.4 | 86.2 | > 100 | 83.1 | > 100 | 29.2 | 79.7 | > 100 | > 100 | 30.1 | 87.4
2 | C=C(C)[C@@H]1CC[C@@H]2C(=CC[C@]3(C)C([C@H](C)CC/C=C(/C)C(=O)O)CC[C@@]23C)[C@@]1(C)CCC(=O)O (some centres not stated) | – | > 100 | – | 44.4 | – | 36.7 | – | > 100 | – | 53.7 | – | 89.7 | – | 45.1 | – | 58.2 | – | > 100 | – | 44.6
3 | COc1ccc(OC)c(/C=C/C(=O)c2ccc(SC)cc2)c1 | 12.6 | 27.1 | 13.8 | 36.6 | 17.2 | 38.4 | 17.9 | 65.7 | 2.22 | 13.8 | 2.09 | 8.91 | 6.12 | 20.4 | 1.66 | 7.05 | 18.3 | 36.4 | 0.0897 | 2.7
4 | O=C(Nc1ccc(I)cc1F)c1cc(F)ccc1O | 0.407 | 3.26 | 0.499 | > 27.1 | 0.466 | > 100 | 1.59 | 24.2 | 1.85 | 12.4 | 0.512 | 4.45 | 0.367 | 1.92 | 0.253 | 0.888 | 4.04 | > 100 | 0.395 | > 56.4
5 | O=C(O)CNCc1c2ccccc2nc2ccccc12 | – | > 100 | – | > 100 | – | > 100 | – | > 100 | – | 41.2 | – | > 100 | – | > 100 | – | 71.9 | – | > 100 | – | > 100
6 | CC[C@@]1(O)C(=O)N(CCN(C)C)Cc2c1cc1n(c2=O)Cc2cc3ccccc3nc2-1 | 9.31 | > 100 | 33.1 | > 100 | 4.31 | > 100 | > 100 | > 100 | 4.74 | > 100 | > 100 | > 100 | > 100 | > 100 | > 43.9 | > 100 | > 100 | > 100 | > 100 | > 100
7 | Cc1cncc2cccc(S(=O)(=O)N3CCCNC[C@@H]3C)c12 | > 93.4 | > 100 | 16.3 | > 100 | 14.2 | > 100 | 9.18 | 84.4 | 20.3 | > 100 | > 100 | > 100 | 61 | > 100 | 42.8 | > 100 | 17.1 | > 100 | 58.9 | > 100
8 | CCN(Cc1cccc(C)c1)c1ccc(CO)c(Cl)c1 | 14.3 | 29.8 | 12.1 | 33.1 | 14.6 | 29.1 | 0.113 | 0.36 | 15.6 | 39.8 | 15.7 | 32.1 | 5.77 | 21.8 | 6.2 | 31.2 | 0.245 | 1.04 | 1.5 | 8.77
9 | C/C(=C\COc1ccc2ccc(=O)oc2c1)CCC(=O)C(C)(C)O | – | 61.2 | – | 51.1 | – | > 100 | – | > 100 | – | 46.7 | – | 59.2 | – | > 100 | – | 50 | – | > 100 | – | 46.4
10 | CN1CCN(Cc2ccc(NC(=O)c3cncc(C#Cc4cncc5[nH]ncc45)c3)cc2C(F)(F)F)CC1 | 0.157 | 0.706 | 1.69 | 6.14 | 1.14 | 4.71 | 1.38 | 5.43 | 1.25 | 5.07 | 0.556 | 5.33 | 0.295 | 1.25 | 0.761 | 2.48 | 0.601 | 5.96 | 1.46 | 6.39
11 | O=[N+]([O-])C1(CO)COC2(OC1)c1ccccc1-c1ccccc12 | – | > 88.4 | – | > 100 | – | > 100 | – | > 100 | – | 71 | – | > 100 | – | > 100 | – | 70.1 | – | > 100 | – | > 100
12 | NC(=S)c1cn(C2OC(CO)C(O)C2O)c2ncnc(N)c12 (configuration not stated) | 0.0989 | 0.354 | 0.191 | – | 0.229 | – | 0.185 | 0.827 | 0.153 | 0.507 | 0.0633 | 0.262 | 0.175 | 0.605 | 0.099 | 0.448 | 0.353 | – | 0.173 | 1.23
13 | O=C1c2ccccc2-c2c1c1ccccc1c(=O)n2CCCNCCO | 1.21 | 3 | 0.554 | 6.13 | 0.195 | 0.906 | 1.33 | 7.44 | 0.165 | 1.11 | 0.895 | 4.92 | 2.84 | 6.15 | 0.241 | 1.76 | 1.05 | 7.27 | 1.07 | 6.13
14 | Cn1cc(C2=C(c3cccc(Cl)c3)C(=O)NC2=O)c2ccccc21 | 8.03 | 23 | > 25 | > 25 | > 25 | > 25 | 13.4 | > 25 | > 25 | > 25 | 12.6 | > 25 | > 25 | > 25 | > 25 | > 25 | > 25 | > 25 | > 25 | > 25
